From ChEMBL document CHEMBL1146704, “(2-amino-phenyl)-amides of omega-substituted alkanoic acids as new histone deacetylase inhibitors” (Bioorg Med Chem Lett, 2004)
Calls of active or inactive are those of the source. No cut-off for these calls is given here.

What was measured:
[1] = target: Histone deacetylase; test: Effect on induced hyperacetylation of histones in whole cells; type: functional, cell-based, Homo sapiens
[2] = tested on: HCT-116; test: In vitro antiproliferative activity against human cancer cell line HCT116 using MTT assay; type: functional, cell-based
[3] = target: Histone deacetylase 1 (Homo sapiens, UniProt Q13547)
Description: Ability to inhibit recombinant human histone deacetylase 1 (HDAC-1).

[4] = tested on: DU-145; test: In vivo inhibitory activity against human DU145 prostate tumor; Active; conditions: Prostate gland
[5] = tested on: A549; test: In vivo inhibitory activity against human A549 non-small cell lung tumor; Active
[6] = tested on: PANC-1; test: […] inhibitory activity against human PANC-1 pancreatic tumor; Active; type: functional
[7] = tested on: COLO 205; test: In vivo inhibitory activity against human COLO 205 tumor; Active
[8] = tested on: SW48; test: In vivo inhibitory activity against human SW48 colon tumor; Active
[9] = Compound was tested for tumor growth inhibition relative to control; type: functional

Histone deacetylase 1, sequence (Q13547 whole entry): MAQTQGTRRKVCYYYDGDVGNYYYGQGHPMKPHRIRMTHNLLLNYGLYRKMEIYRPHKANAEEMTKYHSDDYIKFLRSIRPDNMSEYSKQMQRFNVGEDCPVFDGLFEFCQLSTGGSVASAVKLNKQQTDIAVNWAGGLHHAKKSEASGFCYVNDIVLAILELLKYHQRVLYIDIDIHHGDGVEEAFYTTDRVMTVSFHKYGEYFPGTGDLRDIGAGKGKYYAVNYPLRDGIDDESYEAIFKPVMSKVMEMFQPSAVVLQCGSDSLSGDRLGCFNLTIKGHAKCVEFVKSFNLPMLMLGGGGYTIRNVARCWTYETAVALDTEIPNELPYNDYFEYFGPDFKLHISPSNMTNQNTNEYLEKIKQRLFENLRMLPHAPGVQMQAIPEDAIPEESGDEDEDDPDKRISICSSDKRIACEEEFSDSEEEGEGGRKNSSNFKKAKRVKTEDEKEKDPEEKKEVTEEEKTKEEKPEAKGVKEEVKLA

EC50 [1] [µM]	IC50 [2] [µM]	IC50 [3] [µM]	SMILES	Activity [4]	Activity [5]	Activity [6]	Activity [7]	Activity [8]	TGI [9] [%]
99	15		Nc1ccccc1NC(=O)CCCCCN1Cc2ccccc2C1=O						
15	20	6	Nc1ccccc1NC(=O)CCCCCCC(=O)c1ccc(Br)cc1						
	31		Nc1ccccc1NC(=O)CCCCCN1C(=O)c2cc(O)c(CN3CCCCC3)cc2C1=O						
> 25	> 47		Nc1ccccc1NC(=O)CCCCCN1C(=O)c2cccnc2C1=O						
5	21	5	COc1ccc(C(=O)CCCCCCC(=O)Nc2ccccc2N)cc1						
10	11		Nc1ccccc1NC(=O)CCCCCN1C(=O)c2ccc(O)cc2C1=O						
5	24	2	Nc1ccccc1NC(=O)CCCCCN1C(=O)c2ccccc2C1=O						
10	7	2	Nc1ccccc1NC(=O)CCCCCCC(=O)c1ccc(-c2ccccc2)cc1	Active	Active	Active	Active	Active	53
3	4	4	COc1ccc(-c2ccc(C(=O)CCCCCCC(=O)Nc3ccccc3N)cc2)cc1OC						
20	19	10	Nc1ccccc1NC(=O)CCCCCCC(=O)c1ccc(-c2cccnc2)cc1						
25	> 25	9	Nc1ccccc1NC(=O)CCCCCCC(=O)c1ccccc1						
2	1	0.5	Nc1ccccc1NC(=O)CCCCCN1C(=O)c2cccc3c(CN4CCOCC4)c(O)cc(c23)C1=O	Active	Active	Active	Active	Active	
	5	4	Cn1c(=O)n(CCCCCC(=O)Nc2ccccc2N)c(=O)c2ccccc21						
1	1		Nc1ccccc1NC(=O)CCCCCN1C(=O)c2cccc3c(CN4CCCCC4)c(O)cc(c23)C1=O						
	12	4	Nc1ccccc1NC(=O)CCCCCN1C(=O)c2cc(O)c(CN3CCOCC3)cc2C1=O						

Continued, compound first:

SMILES	EC50 [1] [µM]	IC50 [2] [µM]	IC50 [3] [µM]	Activity [4]	Activity [5]	Activity [6]	Activity [7]	Activity [8]	TGI [9] [%]
Nc1ccccc1NC(=O)CCCCCN1C(=O)c2cccc3c(Br)ccc(c23)C1=O	10	6							
Nc1ccccc1NC(=O)CCCCCCC(=O)c1ccc(-c2ccccc2)nc1	5	5	3	Active	Active	Active	Active	Active	
Cc1ccc2c(c1)C(=O)N(CCCCCC(=O)Nc1ccccc1N)C2=O	3	6							
Nc1ccccc1NC(=O)CCCCCCC(=O)c1ccc2ccccc2c1	25	9	2						
Nc1ccccc1NC(=O)CCCCCn1c(=O)[nH]c2ccccc2c1=O	10	5	4						
Nc1ccccc1NC(=O)CCCCCN1C(=O)c2cccc3cc(O)cc(c23)C1=O		0.9		Active	Active	Active	Active	Active	28
Nc1ccccc1NC(=O)CCCCCn1cnc2ccccc2c1=O		10							
Nc1ccccc1NC(=O)CCCCCn1nnc2ccccc2c1=O	10	10	8						
Nc1ccccc1NC(=O)c1ccc(CNC(=O)OCc2cccnc2)cc1 [ENTINOSTAT]		0.5							
Nc1ccccc1NC(=O)CCCCCN1C(=O)c2cccc3cccc(c23)C1=O	3	2	3	Active	Active	Active	Active	Active	
Nc1ccccc1NC(=O)CCCCCCC(=O)c1cccc(-c2ccccc2)c1	25	12	1						
